Usually MIC stands for the smallest concentration in the dilution series that meets the test's criterion for growth inhibition. In general, IC50 refers to the concentration that inhibits the measured activity by half.

Converted amounts (≈) assume the structure as drawn. Read-outs that look alike come from different tables or passages of the source. Some results are limits rather than exact numbers.

These results are taken from publication PMC6270205, “Antimicrobial and Selected In Vitro Enzyme Inhibitory Effects of Leaf Extracts, Flavonols and Indole Alkaloids Isolated from Croton menyharthii” (Molecules, 2013).

One test addresses T1, yeast α-glucosidase (Saccharomyces cerevisiae, UniProt P53341).
T1 construct: purchased Sigma-Aldrich
The experiment in a line: α-Glucosidase inhibitory activity. Format: biochemical, Saccharomyces cervisiae. The protocol: All thin layer chromatography analyses were performed at room temperature using pre-coated plates (MERCK, silica gel 60 F254 0.2 thickness). Detection of spots was done by viewing under UV light (254 and 366 nm). Open column chromatography was carried out using silica gel (230-400 mesh) and Sephadex LH-20. Nuclear magnetic resonance (NMR) data were obtained using Bruker spectrometers (400 and 500 MHz). Chemical shifts are expressed in parts per million (ppm).
α-Glucosidase inhibitory activity was determined as previously described by Tao et al. with modifications as detailed by Rengasamy et al.. Briefly, yeast α-glucosidase (0.1 Unit/mL) was dissolved in 0.1 M potassium phosphate buffer (pH 6.8), this was used as the enzyme solution. The control experiment contained the same reaction mixture, but the sample solution was replaced with the same volume of phosphate buffer. […] The determinations were carried out in triplicate. The percentage inhibition (%) was calculated using the following equation: % Inhibition = (Acontrol − Asample)/Acontrol × 100(1) where Acontrol is the absorbance of the control and Asample is the absorbance of the sample. The IC50, which is the concentration of the sample required to inhibit 50% of the enzyme was determined for each sample.

Test [1] has as its system Bacillus subtilis ATCC 6051. The experiment in a line: Antibacterial microdilution bioassay (MIC). The following applies: for Antimicrobial MIC B.s.: n = 3. Format: cell-based. The protocol:
(§1) Minimum inhibitory concentration (MIC) values for antibacterial activity of the crude methanol extract, fractions and isolated compounds were determined using the microdilution bioassay in a 96-well (Greiner Bio-one GmbH, Frickenhausen, Germany) microtitre plates. One hundred microlitres of the resuspended (in 70% aqueous acetone) crude extract, fractions (50 mg/mL) or compounds (1 mg/mL) was two-fold serially diluted with sterile distilled water, in duplicate down the microtitre plate for each of the four bacteria used. A similar two-fold serial dilution of neomycin (Sigma) (0.1 mg/mL) was used as a positive control against each bacterium. Water and 70% aqueous acetone were included as a negative/solvent controls. The screening was done in triplicate and repeated twice for each extract.
(Broth dilution looks for growth in wells or tubes with falling amounts of substance.)

Test [2] concerns Staphylococcus aureus ATCC 12600. The experiment in a line: Antibacterial microdilution bioassay (MIC). In kind it is cell-based. The following applies: for Antimicrobial MIC S.a.: n = 3. The protocol:
as §1

In test [3] the test system is Klebsiella pneumoniae ATCC 13883. The experiment in a line: Antibacterial microdilution bioassay (MIC). In kind it is cell-based. Conditions: for MIC: Klebsiella pneumoniae. The protocol:
as §1

The subject of test [4] is Escherichia coli ATCC 11775. The experiment in a line: Antibacterial microdilution bioassay (MIC). In kind it is cell-based. Conditions: for Antimicrobial MIC E.c.: n = 3. The protocol: as §1
For test [5], the target named is T2, AChE (isolated from electric eels) (Electrophorus electricus, UniProt O42275).
T2 construct: AChE (isolated from electric eels) (type VI-S lyophilized powder); purchased Sigma-Aldrich type VI-S lyophilized powder; host or cells: isolated from electric eels
Kind of test: biochemical. The protocol: Inhibition of AChE by the crude methanol extract, fractions and isolated compounds was done as described by Ellman et al. with some modifications. The acetylcholinesterase enzyme activity was measured by spectrophotometric observation of the increase in a yellow colour produced from thiocholine when it reacts with the dithiobisnitrobenzoate ion. AChE (isolated from electric eels) (type VI-S lyophilized powder) was obtained from Sigma-Aldrich. The assay was carried out in a 96-well microtitre plate. The crude methanol extract, fractions and isolated compounds were at initial concentrations of 10 mg/mL (crude extract and fractions) and 1 mg/mL (pure compounds). The increase in absorbance due to the spontaneous hydrolysis of the substrate was corrected by subtracting the ratio of reaction before adding the enzyme from the rate after adding the enzyme (0.2 U/mL). Percentage of inhibition was calculated by comparing the reaction rates for the sample to the negative control. […] The IC50 values of extracts and compounds were calculated using Graph Pad Prism (version 5.0) statistical software programme for Windows (GraphPad Software Inc.).

In test [6] the test system is Candida albicans (ATCC 10231). Kind of test: Antifungal microdilution bioassay (MIC). Format: cell-based. The protocol:
The antifungal activity of the crude methanol extract, fractions and isolated compounds were evaluated against Candida albicans (ATCC 10231) using the micro-dilution assay, modified for an antifungal assay. An overnight fungal culture was prepared in 10 mL yeast malt (YM) broth. Four hundred microliters of the overnight Candida culture were added to 4 mL of sterile saline solution. The absorbance was read at 530 nm and adjusted with sterile saline solution to match that of a […] McFarland standard solution. From this prepared stock, a 1:1000 dilution with sterile YM broth was prepared to give an approximately 10^6 cfu/mL culture. One hundred microlitres of the resuspended (in 70% aqueous acetone) crude extract, fractions (50 mg/mL) or compounds (1 mg/mL) were two-fold serially diluted with sterile distilled water, in duplicate down a 96-well microtitre plate. A similar 2-fold serial dilution of amphotericin B (Sigma, 2.5 mg/mL) was used as a positive control. Water, 70% aqueous acetone and fungal free broth were included as negative/solvent controls. The screening was done in triplicate and repeated twice for each extract, the MIC and MFC values were recorded.

Test [7] concerns the target T3, human recombinant COX-2 enzyme (Homo sapiens, UniProt P35354).
T3 construct: His6 (N); purchased Sigma-Aldrich; host or cells: Baculovirus overexpression system in Sf 21 cells
T3 sequence (P35354 18-604): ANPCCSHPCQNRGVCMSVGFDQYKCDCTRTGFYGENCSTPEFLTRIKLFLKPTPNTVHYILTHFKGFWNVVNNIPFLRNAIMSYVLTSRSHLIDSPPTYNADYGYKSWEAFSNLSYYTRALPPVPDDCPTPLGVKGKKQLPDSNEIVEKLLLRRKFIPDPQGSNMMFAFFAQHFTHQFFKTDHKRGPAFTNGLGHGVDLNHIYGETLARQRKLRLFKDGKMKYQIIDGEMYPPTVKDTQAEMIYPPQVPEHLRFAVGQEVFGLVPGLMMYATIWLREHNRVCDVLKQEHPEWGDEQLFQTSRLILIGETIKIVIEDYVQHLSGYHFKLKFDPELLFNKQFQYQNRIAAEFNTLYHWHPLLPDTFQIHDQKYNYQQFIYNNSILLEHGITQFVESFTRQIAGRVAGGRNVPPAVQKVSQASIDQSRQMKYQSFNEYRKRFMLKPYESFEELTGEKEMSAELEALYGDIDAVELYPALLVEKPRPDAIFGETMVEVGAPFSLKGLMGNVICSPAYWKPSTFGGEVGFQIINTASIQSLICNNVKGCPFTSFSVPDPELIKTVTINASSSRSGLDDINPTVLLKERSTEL
The experiment in a line: Cyclooxygenase (COX-2) inhibitory bioassay. In kind it is biochemical. Conditions: read-out: COX-2 inhibitory activity level.

[8] abbreviates: read-out: α-Glucosidase inhibitory activity Percentage inhibition.
Setting [9] is: ATCC6051, n = 3, read-out: Antimicrobial MIC B.s.
Setting [10] is: ATCC12600, n = 3, read-out: Antimicrobial MIC S.a.
Where [11] appears, read: ATCC13883, Klebsiella pneumonia, n = 3, read-out: Antimicrobial MIC K.p.
Setting [12] is: ATCC11775, n = 3, read-out: Antimicrobial MIC E.c.
[13] abbreviates: pure compounds at 300 µg/mL, mean ± standard error, read-out: AChE inhibitory activity Percentage inhibition.
Setting [14] is: ATCC10231, n = 3, read-out: Antimicrobial MIC C.a.
The mark [15] stands for this setting: ATCC10231, read-out: Antimicrobial MIC C.a.
Where [16] appears, read: pure compounds at 300 µg/mL, mean ± standard error.

T2 sequence (O42275 24-633): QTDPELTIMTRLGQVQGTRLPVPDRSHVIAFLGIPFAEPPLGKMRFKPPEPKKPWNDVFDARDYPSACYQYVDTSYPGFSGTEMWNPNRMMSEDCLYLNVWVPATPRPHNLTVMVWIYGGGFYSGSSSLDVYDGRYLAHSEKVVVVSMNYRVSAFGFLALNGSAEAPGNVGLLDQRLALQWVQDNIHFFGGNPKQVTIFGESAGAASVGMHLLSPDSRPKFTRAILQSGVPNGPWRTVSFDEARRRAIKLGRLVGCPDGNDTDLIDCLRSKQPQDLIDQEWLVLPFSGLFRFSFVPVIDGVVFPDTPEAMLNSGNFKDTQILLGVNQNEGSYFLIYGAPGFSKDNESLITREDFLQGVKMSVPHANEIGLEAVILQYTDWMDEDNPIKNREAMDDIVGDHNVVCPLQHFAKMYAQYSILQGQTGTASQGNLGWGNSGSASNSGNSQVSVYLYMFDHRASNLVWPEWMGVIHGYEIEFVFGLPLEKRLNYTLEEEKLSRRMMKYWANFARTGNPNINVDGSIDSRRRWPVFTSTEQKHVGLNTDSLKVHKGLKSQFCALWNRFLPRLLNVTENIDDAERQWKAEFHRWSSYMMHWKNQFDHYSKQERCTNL
T1 sequence (P53341 whole entry): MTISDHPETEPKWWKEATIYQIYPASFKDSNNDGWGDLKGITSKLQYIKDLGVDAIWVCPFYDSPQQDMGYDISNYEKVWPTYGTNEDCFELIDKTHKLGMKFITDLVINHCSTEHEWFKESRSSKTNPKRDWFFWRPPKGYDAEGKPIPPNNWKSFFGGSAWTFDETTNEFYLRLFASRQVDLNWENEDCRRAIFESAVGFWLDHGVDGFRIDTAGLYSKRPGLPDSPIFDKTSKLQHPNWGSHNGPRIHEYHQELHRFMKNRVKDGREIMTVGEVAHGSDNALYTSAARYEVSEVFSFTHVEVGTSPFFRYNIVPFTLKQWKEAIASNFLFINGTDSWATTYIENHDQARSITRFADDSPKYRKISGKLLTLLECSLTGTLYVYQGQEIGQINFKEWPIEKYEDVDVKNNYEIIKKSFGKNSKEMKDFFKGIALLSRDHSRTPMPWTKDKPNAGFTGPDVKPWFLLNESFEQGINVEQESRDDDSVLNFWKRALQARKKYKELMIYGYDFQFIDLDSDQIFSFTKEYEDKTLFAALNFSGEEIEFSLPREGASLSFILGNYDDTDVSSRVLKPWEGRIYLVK

In the case of `O=c1c(O)c(-c2ccc(O)c(O)c2)oc2cc(O)cc(O)c12` [Quercetin (3), 3,3', 4',5,7-pentahydroxyflavone], the inhibition at 300 µg/mL on yeast α-glucosidase (setting [8]) stood at 67.1 ± 4.2%; in test [5] (setting [13]), 56.6 ± 0.3%. In addition, the MIC in test [1] (setting [9]) was 30 µg/mL (≈ 99.3 µM); in test [2] (setting [10]) it was over 250 µg/mL; in test [3] (setting [11]) it was 250 µg/mL (≈ 827 µM); in test [4] (setting [12]) it was over 250 µg/mL; in test [6] (setting [14]), 20 µg/mL (≈ 66.2 µM).
For the compound `O=C(/C=C/c1ccc(O)cc1)NCCc1c[nH]c2ccc(O)cc12` [Trans-N-(p-coumaroyl) serotonin (4), (E)-N-(4-hydroxycinnamoyl)-5-hydroxytryptamine], the 50% inhibitory concentration (IC50) was 16.4 µM against yeast α-glucosidase and 46.5 µM in test [5] (mean ± standard error, read-out: AChE inhibitory activity IC50 (converted)). Also, the inhibition at 300 µg/mL is 97.3 ± 3.2% at yeast α-glucosidase (setting [8]); 72.6 ± 4.9% in test [5] (setting [13]); 70 to 100% in test [5] (pure compounds at 300 µg/mL, read-out: AChE inhibitory activity level). Also, the MIC in test [1] (setting [9]) amounted to 250 µg/mL (≈ 776 µM); in test [2] (setting [10]), 250 µg/mL (≈ 776 µM); in test [3] (setting [11]), 250 µg/mL (≈ 776 µM); in test [4] (setting [12]), 250 µg/mL (≈ 776 µM); in test [6] (setting [14]), 130 µg/mL (≈ 403 µM).
In the case of `C[C@@H]1[C@H](O)[C@@H](C)/C=C/C=C/C=C/C=C/C=C/C=C/C=C/[C@H](O[C@@H]2O[C@H](C)[C@@H](O)[C@H](N)[C@@H]2O)C[C@@H]2O[C@](O)(C[C@@H](O)C[C@@H](O)[C@H](O)CC[C@@H](O)C[C@@H](O)CC(=O)O[C@H]1C)C[C@H](O)[C@H]2C(=O)O` [Amphotericin B, amphotericin B, reference compound], the minimal inhibitory concentration (MIC) in test [6] (setting [15]) stood at 9.77 µg/mL (≈ 10.6 µM).
Take neomycin [reference compound]: the “Antimicrobial MIC B.s.” value in test [1] amounted to 1.6 µg/mL. The “Antimicrobial MIC S.a.” value in test [2] was determined as 1.6 µg/mL. Besides, in test [3] (Klebsiella pneumonia, n = 3), the “Antimicrobial MIC K.p.” value turned out to be 0.8 µg/mL. Further, the “Antimicrobial MIC E.c.” value in test [4] amounted to 0.8 µg/mL.
`CC1OC(Oc2c(-c3cc(O)c(O)c(O)c3)oc3cc(O)cc(O)c3c2=O)C(O)C(O)C1O` (stereo not shown) [Myricetrin-3-O-rhamnoside (1), Myricetrin-3-O-rhamnoside]: the figures for the IC50 (against yeast α-glucosidase; in test [5]) were 170 µM and 140 µM, respectively. In addition, the inhibition at 300 µg/mL was determined as 89.1 ± 5.3% on yeast α-glucosidase (setting [8]) and 54.3 ± 1.1% in test [5] (read-out: AChE inhibitory activity Percentage inhibition). Further, the inhibition at 25 µg/mL in test [7] is under 20%. For the same compound, the MIC amounted to 250 µg/mL (≈ 538 µM) in test [1] (ATCC6051, read-out: Antimicrobial MIC B.s.); 250 µg/mL (≈ 538 µM) in test [2] (ATCC12600, read-out: Antimicrobial MIC S.a.); 250 µg/mL (≈ 538 µM) in test [3] (ATCC13883, read-out: Antimicrobial MIC K.p.); 250 µg/mL (≈ 538 µM) in test [4] (ATCC11775, read-out: Antimicrobial MIC E.c.); 250 µg/mL (≈ 538 µM) in test [6] (setting [15]).
For “Quercetin-3-O-rhamnoside [Quercetin-3-O-rhamnoside (2)]”, at yeast α-glucosidase (setting [16]), the “α-Glucosidase inhibitory activity Percentage inhibition” value was 47.0 ± 1.7 a. In addition, the “Antimicrobial MIC B.s.” value in test [1] came to 130 µg/mL. Moreover, the “Antimicrobial MIC S.a.” value in test [2] was over 250 µg/mL. Moreover, the “Antimicrobial MIC K.p.” value in test [3] (Klebsiella pneumonia, n = 3) is over 250 µg/mL. In addition, the “Antimicrobial MIC E.c.” value in test [4] is over 250 µg/mL. Further, the “AChE inhibitory activity Percentage inhibition” value in test [5] (setting [16]) was 53.3 ± 1.0 b,c. The “Antimicrobial MIC C.a.” value in test [6] (n = 3) was determined as 250 µg/mL.
For `C[C@H]1O[C@H](O[C@H]2[C@H](O)[C@@H](O)[C@@H](O[C@H]3[C@H](O)[C@@H](O)C(O)O[C@@H]3CO)O[C@@H]2CO)[C@H](O)[C@@H](O)[C@@H]1N[C@H]1C=C(CO)[C@@H](O)[C@H](O)[C@H]1O` (stereo partly shown) [Acarbose, acarbose, reference compound], the inhibition at 250 µg/mL at yeast α-glucosidase (setting [8]) turned out to be 83.6 ± 2.6%.
